Earlier results in patent US20230157303A1, “Plant-Based Pesticide” (priority 2022, published 2023).

Legend:
Settings in all cases: in vivo
aquatic wildlife = test system: aquatic wildlife
humans and other mammals = test system: humans and other mammals
honeybees = test system: honeybees

Structure (SMILES) | toxicity to aquatic wildlife (aquatic wildlife) | toxicity to humans and other mammals (humans and other mammals) | toxicity to honeybees (honeybees)
CC1(C)C(C=C(Cl)Cl)C1C(=O)OC(C#N)c1cccc(Oc2ccccc2)c1 (centres unmarked) [Cypermethrin] | highly toxic | acutely toxic | very highly toxic
CCOC(=O)CC(SP(=S)(OC)OC)C(=O)OCC (centres unmarked) [malathion, Malathion] | – | – | toxic
CCOP(=S)(OCC)Oc1cc(C)nc(C(C)C)n1 [diazinon, Diazinon] | – | – | toxic
